US8921383B2, “Thiazolopyrimidine compounds” (Hoffmann-La Roche Inc., priority 2011, dated 2014)

Target: T1, purified recombinant human SYK360-635 (Homo sapiens, UniProt P43405)
T1 construct: truncated construct of Spleen Tyrosine Kinase aa 360-635; GST; made in house
Assay: SYK kinase assay: 33P γATP incorporation into biotinylated peptide substrate, IC50 determination
Type: biochemical
Settings: SYK 0.5 nM, ATP 20 μM, DYE peptide 5 μM, 30° C. 15 min; read-out: IC50 h-syk-gst-sf9-c (inactive-dephosphorylated)
Description: Determination of IC50 of Spleen Tyrosine Kinase (SYK) Inhibition:
SYK kinase assay is a standard kinase assay adapted to a 96 well plate format. This assay is performed in 96-well format for IC50 determination with […] which represented 10 half log dilutions and a 40 μL reaction volume. The assay measures the incorporation of radiolabeled ^33P γATP into an N-terminally biotinylated peptide substrate, derived from naturally occurring phosphoacceptor consensus sequence (Biotin-11aa DY*E). Phosphorylated products were detected upon termination of reactions with EDTA and the addition of Streptavidin coated beads.
Assay plates: 96-well MultiScreen 0.65 um filter plates (Millipore Cat. No.: MADVNOB10)
BSA: Bovine Serum Albumin Fraction V, fatty acid free (Roche Diagnostics GmbH, Cat. No. 9100221) diluted to a final concentration of 0.1%
Assay Dilution Buffer (ADB): 50 mM HEPES, 0.1 mM EGTA, 0.1 mM Na Vanadate, 0.1 mM β-glycerophosphate, 10 mM MgCl2, 1 mM DTT, 0.1% BSA, pH 7.5
Bead wash buffer: 10 g/L PBS (Phosphate buffered saline) with 2M NaCl+1% phosphoric acid.
DMSO and the mixture was incubated for 10 min at RT.
The kinase reaction was initiated by the addition of 10 μL 4× substrate cocktail containing the DYE peptide substrate [0 or 5 μM], ATP [20 μM] and ^33PγATP [2 μCi/r×n]. After incubation at 30° C. for 15 min, the reaction was terminated by the transfer of 25 μL of the reaction sample to a 96 well 0.65 μm Millipore MADVNOB membrane/plate containing 200 μL 5 mM EDTA and 20% Streptavidine coated beads in PBS.
After the last wash membrane/plates were transferred to an adaptor plate, heat dried for 15 min at 60° C., and 50 μL scintillation cocktail was added to each well and 4 h later the amount of radioactivity was counted in a top counter.

Row | SMILES | IC50
1 | COc1ccc(Nc2nc(-c3cccc(C(=O)Nc4ccc(-c5nnc(S)o5)cc4)c3)nc3scnc23)cc1OC [Compound I-15, 3-[7-(3,4-Dimethoxy-phenylamino)-thiazolo[5,4-d]pyrimidin-5-yl]-N-[4-(5-mercapto-[1,3,4]oxadiazol-2-yl)-phenyl]-benzamide] | 45 nM
2 | COC(=O)c1ccc(C(=O)NC2CCN(c3nc(Nc4ccc(OC)c(OC)c4)c4ncsc4n3)C2)cn1 (stereo not shown) [Compound I-38, Methyl 5-(1-(7-(3,4-dimethoxyphenylamino)thiazolo[5,4-d]pyrimidin-5-yl)pyrrolidin-3-ylcarbamoyl)picolinate] | 1950 nM
3 | COc1ccc(Nc2nc(-c3cccc(C(N)=O)c3)nc3scnc23)cc1OC [Compound I-68, 3-[7-(3,4-Dimethoxy-phenylamino)-thiazolo[5,4-d]pyrimidin-5-yl]-benzamide] | 233 nM
4 | COc1ccc(Nc2nc(-c3cccc(C(=O)Nc4ccc5[nH]ncc5c4)c3)nc3scnc23)cc1OC [Compound I-18, 3-[7-(3,4-Dimethoxy-phenylamino)-thiazolo[5,4-d]pyrimidin-5-yl]-N-(1H-indazol-5-yl)-benzamide] | 980 nM
5 | COc1ccc(Nc2nc(N3CCCC(C(=O)Nc4cnccn4)C3)nc3scnc23)cc1OC (stereo not shown) [Compound I-49, 1-(7-(3,4-Dimethoxyphenylamino)thiazolo[5,4-d]pyrimidin-5-yl)-N-(pyrazin-2-yl)piperidine-3-carboxamide] | 1520 nM
6 | COc1ccc(Nc2nc(-c3ccc(C(=O)NCCc4ccn(C)c(=O)c4)cc3)nc3scnc23)cc1OC [Compound I-24, 4-[7-(3,4-Dimethoxy-phenylamino)-thiazolo[5,4-d]pyrimidin-5-yl]-N-[2-(1-methyl-2-oxo-1,2-dihydro-pyridin-4-yl)-ethyl]-benzamide] | 916 nM
7 | COc1ccc(Nc2nc(N3CCC(NC(=O)c4ccc(C(=O)O)c(OC)c4)C3)nc3scnc23)cc1OC (stereo not shown) [Compound I-10, 4-(1-(7-(3,4-Dimethoxyphenylamino)thiazolo[5,4-d]pyrimidin-5-yl)pyrrolidin-3-ylcarbamoyl)-2-methoxybenzoic acid] | 111 nM
8 | COc1ccc(Nc2nc(N3CCC(NC(=O)c4ccc(C(N)=O)nc4)C3)nc3scnc23)cc1OC (stereo not shown) [Compound I-37, N5-(1-(7-(3,4-Dimethoxyphenylamino)thiazolo[5,4-d]pyrimidin-5-yl)pyrrolidin-3-yl)pyridine-2,5-dicarboxamide] | 912 nM
9 | C[C@H]1CCCN1c1cccc(Nc2nc(-c3ccc(C(N)=O)cc3)nc3scnc23)c1 [Compound I-62, 4-{7-[3-((S)-2-Methyl-pyrrolidin-1-yl)-phenylamino]-thiazolo[5,4-d]pyrimidin-5-yl}-benzamide] | 337 nM
10 | COc1ccc(Nc2nc(N3CCCC(C(=O)Nc4ccc(-c5nnc(S)n5C)cc4)C3)nc3scnc23)cc1OC (stereo not shown) [Compound I-52, 1-(7-(3,4-Dimethoxyphenylamino)thiazolo[5,4-d]pyrimidin-5-yl)-N-(4-(5-mercapto-4-methyl-4H-1,2,4-triazol-3-yl)phenyl)piperidine-3-carboxamide] | 441 nM
11 | C[C@H]1CCCN1c1cccc(Nc2nc(N3CCCC(O)C3)nc3scnc23)c1 (stereo partly drawn) [Compound I-59, 1-(7-(3-((S)-2-Methylpyrrolidin-1-yl)phenylamino)thiazolo[5,4-d]pyrimidin-5-yl)piperidin-3-ol] | 757 nM
12 | COc1ccc(Nc2nc(N3CCC(NC(=O)c4ccc5c(c4)NC(=O)C5)C3)nc3scnc23)cc1OC (stereo not shown) [Compound I-8, N-(1-(7-(3,4-Dimethoxyphenylamino)thiazolo[5,4-d]pyrimidin-5-yl)pyrrolidin-3-yl)-2-oxoindoline-6-carboxamide] | 882 nM
13 | COc1ccc(Nc2nc(N3CCC(NC(=O)c4ccc5[nH]c(=O)[nH]c5c4)C3)nc3scnc23)cc1OC (stereo not shown) [Compound I-14, N-(1-(7-(3,4-Dimethoxyphenylamino)thiazolo[5,4-d]pyrimidin-5-yl)pyrrolidin-3-yl)-2-oxo-2,3-dihydro-1H-benzo[d]imidazole-5-carboxamide] | 487 nM
14 | COc1ccc(Nc2nc(-c3cccc(C(F)=Cc4ccc(C(=O)O)cc4)c3)nc3scnc23)cc1OC (stereo in doubt) [Compound I-31, 4-((E)-2-{3-[7-(3,4-Dimethoxy-phenylamino)-thiazolo[5,4-d]pyrimidin-5-yl]-phenyl}-2-fluoro-vinyl)-benzoic acid] | 592 nM
15 | COc1ccc(Nc2nc(-c3cccc(C(=O)Nc4ccc(C5SC(=O)NC5=O)cc4)c3)nc3scnc23)cc1OC (stereo not shown) [Compound I-63, 3-[7-(3,4-Dimethoxy-phenylamino)-thiazolo[5,4-d]pyrimidin-5-yl]-N-[4-(2,4-dioxo-thiazolidin-5-yl)-phenyl]-benzamide] | 53 nM
16 | COc1ccc(Nc2nc(N3CCC(NC(=O)c4ccc5[nH]ncc5c4)C3)nc3scnc23)cc1OC (stereo not shown) [Compound I-35, N-(1-(7-(3,4-Dimethoxyphenylamino)thiazolo[5,4-d]pyrimidin-5-yl)pyrrolidin-3-yl)-1H-indazole-5-carboxamide] | 418 nM
17 | O=C(O)c1cccc(-c2nc(Nc3cccc(N4CC5(COC5)C4)c3)c3ncsc3n2)c1 [Compound I-53, 3-{7-[3-(2-Oxa-6-aza-spiro[3.3]hept-6-yl)-phenylamino]-thiazolo[5,4-d]pyrimidin-5-yl}-benzoic acid] | 3870 nM
18 | COc1ccc(Nc2nc(N3CCCC(C(=O)Nc4ccc5c(c4)CNC5=O)C3)nc3scnc23)cc1OC (stereo not shown) [Compound I-46, 1-(7-(3,4-Dimethoxyphenylamino)thiazolo[5,4-d]pyrimidin-5-yl)-N-(1-oxoisoindolin-5-yl)piperidine-3-carboxamide] | 1030 nM
19 | COc1ccc(Nc2nc(-c3cccc(C(=O)O)c3)nc3scnc23)cc1OC [Compound I-1, 3-[7-(3,4-Dimethoxy-phenylamino)-thiazolo[5,4-d]pyrimidin-5-yl]-benzoic acid] | 421 nM
20 | COc1ccc(Nc2nc(N3CCCC(C(=O)Nc4ccc(C(=O)O)c(O)c4)C3)nc3scnc23)cc1OC (stereo not shown) [Compound I-47, 4-(1-(7-(3,4-Dimethoxyphenylamino)thiazolo[5,4-d]pyrimidin-5-yl)piperidine-3-carboxamido)-2-hydroxybenzoic acid] | 71 nM
21 | C[C@H]1CCCN1c1cccc(Nc2nc(-c3ccc(C(=O)NCCN(C)C)cc3)nc3scnc23)c1 [Compound I-65, (S)-N-(2-(Dimethylamino)ethyl)-4-(7-(3-(2-methylpyrrolidin-1-yl)phenylamino)thiazolo[5,4-d]pyrimidin-5-yl)benzamide] | 351 nM
22 | COc1ccc(Nc2nc(N3CCC(NC(=O)c4ccc5cn[nH]c5c4)C3)nc3scnc23)cc1OC (stereo not shown) [Compound I-11, N-(1-(7-(3,4-Dimethoxyphenylamino)thiazolo[5,4-d]pyrimidin-5-yl)pyrrolidin-3-yl)-1H-indazole-6-carboxamide] | 406 nM
23 | O=C(O)c1cccc(-c2nc(Nc3cccc(N4C[C@H]5CC[C@@H](C4)O5)c3)c3ncsc3n2)c1 [Compound I-34, 3-{7-[(1R,5S)-3-(8-Oxa-3-aza-bicyclo[3.2.1]oct-3-yl)-phenylamino]-thiazolo[5,4-d]pyrimidin-5-yl}-benzoic acid] | 2470 nM
24 | COc1ccc(Nc2nc(-c3cccc(C(=O)N4CCCNCC4)c3)nc3scnc23)cc1OC [Compound I-2, [1,4]Diazepan-1-yl-{3-[7-(3,4-dimethoxy-phenylamino)-thiazolo[5,4-d]pyrimidin-5-yl]-phenyl}-methanone] | 1110 nM
25 | COc1ccc(Nc2nc(N3CCC(C(=O)NCCc4ccncc4)CC3)nc3scnc23)cc1OC [Compound I-21, 1-(7-(3,4-Dimethoxyphenylamino)thiazolo[5,4-d]pyrimidin-5-yl)-N-(2-(pyridin-4-yl)ethyl)piperidine-4-carboxamide] | 1850 nM
26 | COc1ccc(-c2nc(Nc3cccc(N4CCC[C@@H]4C)c3)c3ncsc3n2)cn1 [Compound I-61, (S)-5-(6-Methoxypyridin-3-yl)-N-(3-(2-methylpyrrolidin-1-yl)phenyl)thiazolo[5,4-d]pyrimidin-7-amine] | 1040 nM
27 | COc1ccc(Nc2nc(-c3cccc(CCc4ccc(C(=O)O)cc4)c3)nc3scnc23)cc1OC [Compound I-33, 4-(3-(7-(3,4-Dimethoxyphenylamino)thiazolo[5,4-d]pyrimidin-5-yl)phenethyl)benzoic acid] | 350 nM
28 | COc1ccc(Nc2nc(N3CCC(NC(=O)c4ccc(C(=O)O)nc4)C3)nc3scnc23)cc1OC (stereo not shown) [Compound I-39, 5-(1-(7-(3,4-Dimethoxyphenylamino)thiazolo[5,4-d]pyrimidin-5-yl)pyrrolidin-3-ylcarbamoyl)picolinic acid] | 129 nM
